≈ marks a conversion by molar mass, not a printed value. Where two headings read alike, the source gives them in different places.
What was measured:
Assay type in all cases: cell-based
[1] = system: Aspergillus fumigatus IAM 2621; assay: Antifungal Activity (in Industrial Field), MIC; details: IAM2621, read-out: Minimal Inhibitory Conc. (MIC)
[2] = system: Aspergillus terreus PQMD 82 j; assay: Antifungal Activity (in Industrial Field), MIC; details: PQMD82J, read-out: Minimal Inhibitory Conc. (MIC)
[3] = system: Pullularia pullulans IAM F-24; assay: Antifungal Activity (in Industrial Field), MIC; details: IAMF24; Pullularia pullulans IAM F-24; read-out: Minimal Inhibitory Conc. (MIC)
[4] = system: Cochliobolus miyabeanus; assay: Antibacterial and Antifungal Activities (in Agricultural Field), MIC; details: Bipolaris oryzae, read-out: Minimal Inhibitory Conc. (MIC)
[5] = system: Serratia marcescens MB-3848; assay: Antibacterial Activity (in medicinal field), MIC; details: MB3848, read-out: Minimal Inhibitory Conc. (MIC)
[6] = system: Cladosporium herbarum IAM F-517; assay: Antifungal Activity (in Industrial Field), MIC; details: IAMF517, read-out: Minimal Inhibitory Conc. (MIC)
[7] = system: Aspergillus flavus ATCC 6275; assay: Antifungal Activity (in Industrial Field), MIC; details: ATCC6275, read-out: Minimal Inhibitory Conc. (MIC)
[8] = system: Staphylococcus epidermidis ATCC 14990; assay: Antibacterial Activity (in medicinal field), MIC; details: ATCC14990; Staphylococcus epidermidis ATCC 14990; read-out: Minimal Inhibitory Conc. (MIC)
[9] = system: Xanthomonas campestris pv. citri; assay: Antibacterial and Antifungal Activities (in Agricultural Field), MIC; details: read-out: Minimal Inhibitory Conc. (MIC)
[10] = system: Mucor spinescens IAM Mu3; assay: Antifungal Activity (in Industrial Field), MIC; details: IAMMU3, read-out: Minimal Inhibitory Conc. (MIC)
[11] = system: Phricularia oryzae; assay: Antibacterial and Antifungal Activities (in Agricultural Field), MIC; details: read-out: Minimal Inhibitory Conc. (MIC)
[12] = system: Trichophyton metagrophytes 530324; assay: Antifungal Activity (in Medicinal Field), MIC; details: Trichophyton metagrophytes 530324; read-out: Minimal Inhibitory Conc. (MIC)
[13] = system: Aspergillus fumigatus Saito; assay: Antifungal Activity (in Medicinal Field), MIC; details: read-out: Minimal Inhibitory Conc. (MIC)
[14] = system: Corynebacterium michiganense; assay: Antibacterial and Antifungal Activities (in Agricultural Field), MIC; details: Clavibacter michiganensis; Corynebacterium michiganense; read-out: Minimal Inhibitory Conc. (MIC)
[15] = system: Pseudomonas cepacia M-0527; assay: Antibacterial Activity (in medicinal field), MIC; details: Burkholderia cepacia, M0527, read-out: Minimal Inhibitory Conc. (MIC)
[16] = system: Trichophyton interdigitale; assay: Antifungal Activity (in Medicinal Field), MIC; details: read-out: Minimal Inhibitory Conc. (MIC)
[17] = system: Botrytis cinerea; assay: Antibacterial and Antifungal Activities (in Agricultural Field), MIC; details: read-out: Minimal Inhibitory Conc. (MIC)
[18] = system: Cryptococcus neoformans Cr-1; assay: Antifungal Activity (in Medicinal Field), MIC; details: CR1, read-out: Minimal Inhibitory Conc. (MIC)
[19] = system: Diaporithe citri; assay: Antibacterial and Antifungal Activities (in Agricultural Field), MIC; details: read-out: Minimal Inhibitory Conc. (MIC)
[20] = system: Erwinia carotovora; assay: as above; details: Pectobacterium carotovorum, read-out: Minimal Inhibitory Conc. (MIC)
[21] = system: Escherichia coli NIHJ JC-2; assay: Antibacterial Activity (in medicinal field), MIC; details: NIHJJC2, read-out: Minimal Inhibitory Conc. (MIC)
[22] = system: Klebsiella pneumoniae PCI-602; assay: Antibacterial Activity (in medicinal field), MIC; details: PCI602, read-out: Minimal Inhibitory Conc. (MIC)
[23] = system: Shigella sonnei EW 33 Type I; assay: Antibacterial Activity (in medicinal field), MIC; details: EW33TYPEI, read-out: Minimal Inhibitory Conc. (MIC)
[24] = system: Chaetomium globosum ATCC 6205; assay: Antifungal Activity (in Industrial Field), MIC; details: ATCC6205, read-out: Minimal Inhibitory Conc. (MIC)
[25] = system: Candida alubicans GA-24; assay: Antifungal Activity (in Medicinal Field), MIC; details: GA24; Candida alubicans GA-24; read-out: Minimal Inhibitory Conc. (MIC)
[26] = system: Penicillium luteum ATCC 9644; assay: Antifungal Activity (in Industrial Field), MIC; details: Ascospirella lutea, ATCC9644, read-out: Minimal Inhibitory Conc. (MIC)
[27] = system: Fusarium oxysporum f. lycopersici; assay: Antibacterial and Antifungal Activities (in Agricultural Field), MIC; details: read-out: Minimal Inhibitory Conc. (MIC)
[28] = system: Colletotrichum lagenarium; assay: as above; details: Colletotrichum orbiculare, read-out: Minimal Inhibitory Conc. (MIC)
[29] = system: Alternaria kikuchiana; assay: as above; details: read-out: Minimal Inhibitory Conc. (MIC)
[30] = system: Staphylococcus aureus 209P JC-1; assay: Antibacterial Activity (in medicinal field), MIC; details: read-out: Minimal Inhibitory Conc. (MIC)
[31] = system: Proteus vulgaris OX-19; assay: Antibacterial Activity (in medicinal field), MIC; details: OX19, read-out: Minimal Inhibitory Conc. (MIC)
[32] = system: Pseudomonas syringae pv. tabaci; assay: Antibacterial and Antifungal Activities (in Agricultural Field), MIC; details: read-out: Minimal Inhibitory Conc. (MIC)
[33] = system: Trichoderma T-1 ATCC 9645; assay: Antifungal Activity (in Industrial Field), MIC; details: ATCC9645, read-out: Minimal Inhibitory Conc. (MIC)
[34] = system: Pellicularia filamentosa; assay: Antibacterial and Antifungal Activities (in Agricultural Field), MIC; details: read-out: Minimal Inhibitory Conc. (MIC)
[35] = system: Gibberella fujikuroi; assay: as above; details: Fusarium fujikuroi, read-out: Minimal Inhibitory Conc. (MIC)
[36] = system: Glomerella cingulata; assay: as above; details: Colletotrichum gloeosporioides, read-out: Minimal Inhibitory Conc. (MIC)
[37] = system: Bacillus anthracis No. 119; assay: microbe, parasite or virus in culture; details: NO.119, read-out: Minimal Inhibitory Conc. (MIC)
[38] = system: Pseudomonas maltophilia M-0627; assay: Antibacterial Activity (in medicinal field), MIC; details: Stenotrophomonas maltophilia, M0627, read-out: Minimal Inhibitory Conc. (MIC)
[39] = system: Salmonella typhi O-901-W; assay: Antibacterial Activity (in medicinal field), MIC; details: Salmonella enterica, read-out: Minimal Inhibitory Conc. (MIC)
[40] = system: Rhizopus nigricans S.N. 32; assay: Antifungal Activity (in Industrial Field), MIC; details: Rhizopus stolonifer, read-out: Minimal Inhibitory Conc. (MIC)
[41] = system: Xanthomonas campestris pv. oryzae; assay: microbe, parasite or virus in culture; details: read-out: Minimal Inhibitory Conc. (MIC)
[42] = Staphylococcus aureus 209P JC-1

Compound	MIC [1] [µg/mL]	MIC [2] [µg/mL]	MIC [3] [µg/mL]	MIC [4] [µg/mL]	MIC [5] [µg/mL]	MIC [6] [µg/mL]	MIC [7] [µg/mL]	MIC [9] [µg/mL]	MIC [10] [µg/mL]	MIC [11] [µg/mL]	MIC [12] [µg/mL]	MIC [13] [µg/mL]	MIC [14] [µg/mL]	MIC [15] [µg/mL]	MIC [16] [µg/mL]	MIC [18] [µg/mL]	MIC [21] [µg/mL]	MIC [22] [µg/mL]	MIC [25] [µg/mL]	MIC [31] [µg/mL]	further results
IC(I)=C(I)Cn1ccnc1 [1-(2',3',3'-triiodoallyl)imidazole]	6.25 (≈ 12.9 µM)	0.78 (≈ 1.61 µM)	3.13 (≈ 6.44 µM)	6.25 (≈ 12.9 µM)	12.5 (≈ 25.7 µM)	0.39 (≈ 0.803 µM)	3.13 (≈ 6.44 µM)	25 (≈ 51.5 µM)	6.25 (≈ 12.9 µM)	3.13 (≈ 6.44 µM)	1.56 (≈ 3.21 µM)	6.25 (≈ 12.9 µM)	1.56 (≈ 3.21 µM)	6.25 (≈ 12.9 µM)	3.12 (≈ 6.42 µM)	6.25 (≈ 12.9 µM)	12.5 (≈ 25.7 µM)	12.5 (≈ 25.7 µM)	1.56 (≈ 3.21 µM)	12.5 (≈ 25.7 µM)	MIC [8]: 12.5 µg/mL (≈ 25.7 µM); MIC [17]: 1.56 µg/mL (≈ 3.21 µM); MIC [19]: 0.78 µg/mL (≈ 1.61 µM); MIC [20]: 12.5 µg/mL (≈ 25.7 µM); MIC ([23]; Shigella sonnei): 6.5 µg/mL (≈ 13.4 µM); MIC [24]: 1.56 µg/mL (≈ 3.21 µM); MIC [26]: 0.78 µg/mL (≈ 1.61 µM); MIC [27]: 1.56 µg/mL (≈ 3.21 µM); MIC [28]: 1.56 µg/mL (≈ 3.21 µM); MIC [29]: 1.56 µg/mL (≈ 3.21 µM); MIC [30, 42]: 12.5 µg/mL (≈ 25.7 µM); MIC [32]: 12.5 µg/mL (≈ 25.7 µM); MIC [33]: 6.25 µg/mL (≈ 12.9 µM); MIC [34]: 50 µg/mL (≈ 103 µM); MIC [35]: 0.78 µg/mL (≈ 1.61 µM); MIC [36]: 1.56 µg/mL (≈ 3.21 µM)
IC(I)=C(I)Cn1cnnn1 [1-(2',3',3'-triiodoallyl)tetrazole]	–	–	–	–	3.13 (≈ 6.42 µM)	–	–	–	–	–	0.39 (≈ 0.799 µM)	0.78 (≈ 1.6 µM)	–	0.78 (≈ 1.6 µM)	0.39 (≈ 0.799 µM)	3.12 (≈ 6.4 µM)	3.13 (≈ 6.42 µM)	3.13 (≈ 6.42 µM)	3.12 (≈ 6.4 µM)	6.25 (≈ 12.8 µM)	MIC [37]: 0.78 µg/mL (≈ 1.6 µM); MIC [38]: 0.78 µg/mL (≈ 1.6 µM); MIC [39]: 1.56 µg/mL (≈ 3.2 µM); MIC ([23]; Shigella sonnei EW 33 Type I): 3.13 µg/mL (≈ 6.42 µM); MIC [30, 42]: 31.3 µg/mL (≈ 64.2 µM)
IC(I)=C(I)Cn1ncnn1 [2-(2',3',3'-triiodoallyl)tetrazole]	6.25 (≈ 12.8 µM)	0.78 (≈ 1.6 µM)	0.76 (≈ 1.56 µM)	1.56 (≈ 3.2 µM)	6.25 (≈ 12.8 µM)	6.25 (≈ 12.8 µM)	0.78 (≈ 1.6 µM)	25 (≈ 51.2 µM)	1.56 (≈ 3.2 µM)	3.13 (≈ 6.42 µM)	0.09 (≈ 0.184 µM)	0.19 (≈ 0.389 µM)	12.5 (≈ 25.6 µM)	1.56 (≈ 3.2 µM)	0.09 (≈ 0.184 µM)	0.78 (≈ 1.6 µM)	12.5 (≈ 25.6 µM)	12.5 (≈ 25.6 µM)	0.19 (≈ 0.389 µM)	12.5 (≈ 25.6 µM)	MIC [37]: 1.56 µg/mL (≈ 3.2 µM); MIC [40]: 3.13 µg/mL (≈ 6.42 µM); MIC [38]: 1.56 µg/mL (≈ 3.2 µM); MIC [39]: 6.25 µg/mL (≈ 12.8 µM); MIC [17]: 0.39 µg/mL (≈ 0.799 µM); MIC [19]: 0.78 µg/mL (≈ 1.6 µM); MIC [20]: > 100 µg/mL; MIC ([23]; Shigella sonnei EW 33 Type I): 6.25 µg/mL (≈ 12.8 µM); MIC [24]: 12.5 µg/mL (≈ 25.6 µM); MIC [26]: 6.25 µg/mL (≈ 12.8 µM); MIC [27]: 1.56 µg/mL (≈ 3.2 µM); MIC [28]: 0.78 µg/mL (≈ 1.6 µM); MIC [29]: 3.13 µg/mL (≈ 6.42 µM); MIC ([30]; Staphylococcus aureus, 209P): 6.25 µg/mL (≈ 12.8 µM); MIC [32]: > 100 µg/mL; MIC [33]: 3.13 µg/mL (≈ 6.42 µM); MIC [34]: 50 µg/mL (≈ 102 µM); MIC [35]: 0.39 µg/mL (≈ 0.799 µM); MIC [41]: 6.25 µg/mL (≈ 12.8 µM); MIC [36]: 0.39 µg/mL (≈ 0.799 µM)
